From PMC7699649 (Communications Biology, 2020)
Non-standard residues stand in square brackets, D forms with d. Residues, ends and D or L forms follow the SMILES beside them.

Columns and labels:
[1] = system: EMR Staphylococcus aureus-15 NCTC 13616; conditions: RPMI supplemented with 5% FBS (value in parentheses); twofold broth microdilution, 20 h 37 C, OD600; modal MIC, at least three biological replicates
Description: The antibacterial activity of the peptides was assessed through a modified twofold broth microdilution assay with modal MICs generated from at least three biological replicate experiments[20],[25]. The method broadly followed EUCAST methodology, with non-cation-adjusted Mueller Hinton or RPMI replacing cation-adjusted Mueller Hinton. Peptides and antibiotics were diluted in a twofold dilution in media down a 96 well plate. Bacteria were then added, back-diluted from an overnight culture, at a starting concentration of 5 × 10^5 CFU/ml. Plates were incubated, static at 37 C, for 20 h and the OD600 was determined using a Clariostar plate reader (BMG Labtech). […] Synergy was measured using standard microdilution checkerboard assays under the same conditions as the MICs[54]. Twofold dilution series of each peptide or antibiotic were prepared in separate 96 well plates and then combined into one before addition of bacteria. The growth/no growth interface was determined using the same definition as the MIC. The fractional inhibitory concentration was calculated from the most synergistic well on the plate for three independent repeats, and presented as the average +/− standard deviation. FIC is calculated as (MIC of compound A in combination with B/MIC of compound A alone) + (MIC of compound B in combination with A/MIC of compound B alone). MICs were determined on the same plates as the FICs to increase reproducibility.

A549 = type: cell-based; conditions: XTT, 24 h with peptide, OD475; DMEM, 10% FBS; average and standard error of three biological replicates
Description: (§1) HeLa and HEK293 cell lines were purchased from ECACC and cultured in Eagle’s Minimum Essential Media containing glutamine, supplemented with 10% FBS and 1X non-essential amino acids. A549 and Calu-3 cell lines were purchased from ATCC. […] Cytotoxicity was measured by incubating starter cultures of cells for 24 h in a 96 well plate, gently removing the supernatant and replacing it with dilutions of peptides and controls, incubating for a further 24 h and then staining of the cells with the second-generation tetrazolium dye, XTT.

Calu-3 = type: cell-based; conditions: XTT, 24 h with peptide, OD475; DMEM/F-12, 10% FBS; average and standard error of three biological replicates
Description: as §1

EMRSA-15 = experiment: 1H HR-MAS NMR metabolomics of bacterial pellets; type: cell-based, Staphylococcus aureus; conditions: EMRSA-15 in MHB, sub-inhibitory challenge v unchallenged; fold change, 1H HR-MAS NMR of pellets
Description: S. aureus EMRSA-15 and P. aeruginosa RP73 were streaked on Mueller Hinton agar plates and RPMI (supplemented with 5% FBS) agar plates and incubated at 37 °C overnight or until single colonies formed. […] Cultures were incubated overnight at 37 °C without shaking and pelleted by centrifugation at 4 °C. The supernatant was removed and filtered separately for spent media analysis, the pellet was briefly washed three times with phosphate buffered saline (PBS). The pellets were frozen in liquid nitrogen and lyophilised overnight in an Alpha 1–2 LD plus freeze dryer (Martin Christ, Germany) and stored at −20 °C until required. Samples were transferred into HR-MAS inserts for use in 4 mm Bruker MAS rotor and resuspended in 30 μl of D2O containing 3-(Trimethylsilyl)propionic-2,2,3,3-D4 acid sodium salt (TMSP-2,2,3,3-D4). The removed supernatant was filtered through 0.2 μm filters and pH adjusted to within 0.3 pH units within the same sample set. The samples were supplemented with 10% D2O containing TMSP-2,2,3,3-D4 and loaded into 5.0 mm NMR tubes.
NMR spectra were collected at 600 MHz for ^1H on a Bruker Avance II spectrometer (Bruker Biospin, Coventry, UK) with a 4 mm HR-MAS probe at 310 K while spinning at 5 kHz. ^1H NMR spectra were acquired using a Carr-Purcell Meiboom-Gill pre-saturation (cpmgpr1d) pulse sequence with a spectrum width of 16.0 ppm and 9615 data points using 64 transients. Free induction decay was multiplied by an exponential function with 0.293 Hz line broadening. 2D ^1H–^1H correlation spectroscopy (COSY) and ^1H–^13C Heteronuclear Single Quantum Correlation (HSQC) experiments were performed on representative datasets using standard Bruker settings.
The spectra were Fourier transformed automatically using standard Bruker commands and manually phased and baseline corrected in Bruker TopSpin 4.0 (Bruker Biospin, Coventry, UK). Spectral pre-processing, cross-validation and multivariate analysis were carried out using the in-house programme developed by Dr Louic Vermeer and MVAPACK, an opensource Octave library for NMR metabolomic data processing and analysis. Pre-processing modifies NMR spectra and reduces the variances and influences which are not of interest and may interfere with data analysis, for example, residual water peak or noise and the TSP reference peak. Initially a principle component analysis was carried out to identify clustering spectra and potential outliers in the data, due to e.g. poor baseline. Data were then subject to probabilistic quotient normalisation before binning and alignment. Orthogonal Projections to Latent Structures Discriminant Analysis analyses were conducted to establish the quality of binary comparisons of the metabolomic data (Supplementary Table 4). […] The Mann–Whitney U test was used to compare means and associated p values were false discovery rate adjusted using the Benjamini-Hochberg method (α = 0.05). Box plots were generated using changes in normalised intensity for each metabolite and significant differences between challenges and controls were determined using a one-way ANOVA. Volcano plots and box plots were generated using in-house software developed for Jupyter Notepad using Python 3.7.0. Metabolites were assigned using the databanks: Chenomx NMR suite software (Chenomx Inc., Canada), Human Metabolome Database, BMRB, E. coli Metabolome Database and AOCS lipid library; and a comparison of chemical shifts to the literature, which was confirmed using 2D NMR spectra. Annotated spectra can be found in the supplementary materials (Supplementary Fig. 15). Metaboanalyst and KEGG were later used to identify key pathways that may be affected by these metabolites.

[2] = in words

For CC(C)C[C@@H](NC(=O)[C@@H](Cc1ccc(O)cc1)NC(=O)[C@@H](Cc1c[nH]cn1)NC(=O)[C@H](NC(=O)[C@@H](CC(C)C)NC(=O)[C@@H](C)NC(=O)[C@@H](C)NC(=O)[C@@H](CCCNC(=N)N)NC(=O)CNC(=O)[C@H](NC(=O)[C@@H](Cc1c[nH]cn1)NC(=O)[C@@H](CCCNC(=N)N)NC(=O)CNC(=O)[C@H](NC(=O)[C@@H](Cc1c[nH]cn1)NC(=O)[C@@H](C)NC(=O)[C@@H](C)NC(=O)[C@@H](CCCNC(=N)N)NC(=O)[C@@H](CCCNC(=N)N)NC(=O)[C@@H](Cc1ccccc1)NC(=O)[C@@H](Cc1ccccc1)NC(=O)[C@@H](CO)NC(=O)CNC(=O)[C@@H](Cc1c[nH]c2ccccc12)NC(=O)CN)C(C)C)C(C)C)[C@H](C)O)C(N)=O [D-pleurocidin-KR] (H-G[dW]G[dS][dF][dF][dR][dR][dA][dA][dH][dV]G[dR][dH][dV]G[dR][dA][dA][dL][dT][dH][dY][dL]-NH2; N-terminus assumed), the “MIC, peptide concentration” value [1] was 0.5 µg/mL, the “Toxicity A549 (EC50 / IC50)” value (A549) was “(56.5 ± 4.5) µg/ml” and the “Toxicity Calu-3 (EC50 / IC50)” value (Calu-3) was “(39.1 ± 1.8) µg/ml”. The “fc 2-aminobutyrate” value (EMRSA-15) was 0.991, the “fc Acetate” value (EMRSA-15) was 1.149 and the “fc Acetyl-Phosphocholine (1)” value (EMRSA-15) was 0.9923. The “fc Acetyl-Phosphocholine (2)” value (EMRSA-15) was 1.003, the “fc Adenosine” value (EMRSA-15) was 1.125 and the “fc Alanine” value (EMRSA-15) was 0.9478. The “fc Aspartate” value (EMRSA-15) was 0.8483, the “fc Betaine” value (EMRSA-15) was 0.9779 and the “fc Choline” value (EMRSA-15) was 1.051. The “fc Citrulline” value (EMRSA-15) was 0.9363, the “fc Glutamate” value (EMRSA-15) was 0.896 and the “fc Glycerol (lipid headgroup) (1)” value (EMRSA-15) was 0.9028. For the same compound, the “fc Glycerol (lipid headgroup) (2)” value (EMRSA-15) was 1.031, the “fc Glycerol (lipid headgroup) (3)” value (EMRSA-15) was 0.9777 and the “fc Isoleucine” value (EMRSA-15) was 1.148. For the same compound, the “fc Lactate” value (EMRSA-15) was 1.293, the “fc Leucine” value (EMRSA-15) was 1.172 and the “fc Lipid -CH=CH-” value (EMRSA-15) was 1.134. The “fc Lipid-CH₃” value (EMRSA-15) was 1.116, the “fc Lysine” value (EMRSA-15) was 1.027 and the “fc N-acetyl-x (1)” value (EMRSA-15) was 0.8941. For the same compound, the “fc N-acetyl-x (2)” value (EMRSA-15) was 1.036, the “fc N-acetyl-x (3)” value (EMRSA-15) was 0.9489 and the “fc Proline” value (EMRSA-15) was 1.056. For the same compound, the “fc Succinate” value (EMRSA-15) was 0.8785, the “fc Unassigned 1.47ppm” value (EMRSA-15) was 0.8868 and the “fc Unassigned 3.4802ppm” value (EMRSA-15) was 0.9293. For the same compound, the “fc Unassigned 8.55ppm” value (EMRSA-15) was 0.9285, the “fc Uracil” value (EMRSA-15) was 1.738 and the “fc Valine” value (EMRSA-15) was 1.029. For the same compound, the “fc ᴅ-alanine (LTA)” value (EMRSA-15) was 1.157 and the “solubility in aqueous media” value [2] was “readily soluble”.
